Entries after “also recorded” stand apart in the source; their conditions may differ.
Legend:
slc26a3 (DRA) = molecular target: T1, slc26a3 (DRA) (Mus musculus, UniProt Q9WVC8); format: cell-based, murine; settings: for slc26a3 inhibition at 5 μM: 5 μM compound
T1 sequence (Q9WVC8 1-757): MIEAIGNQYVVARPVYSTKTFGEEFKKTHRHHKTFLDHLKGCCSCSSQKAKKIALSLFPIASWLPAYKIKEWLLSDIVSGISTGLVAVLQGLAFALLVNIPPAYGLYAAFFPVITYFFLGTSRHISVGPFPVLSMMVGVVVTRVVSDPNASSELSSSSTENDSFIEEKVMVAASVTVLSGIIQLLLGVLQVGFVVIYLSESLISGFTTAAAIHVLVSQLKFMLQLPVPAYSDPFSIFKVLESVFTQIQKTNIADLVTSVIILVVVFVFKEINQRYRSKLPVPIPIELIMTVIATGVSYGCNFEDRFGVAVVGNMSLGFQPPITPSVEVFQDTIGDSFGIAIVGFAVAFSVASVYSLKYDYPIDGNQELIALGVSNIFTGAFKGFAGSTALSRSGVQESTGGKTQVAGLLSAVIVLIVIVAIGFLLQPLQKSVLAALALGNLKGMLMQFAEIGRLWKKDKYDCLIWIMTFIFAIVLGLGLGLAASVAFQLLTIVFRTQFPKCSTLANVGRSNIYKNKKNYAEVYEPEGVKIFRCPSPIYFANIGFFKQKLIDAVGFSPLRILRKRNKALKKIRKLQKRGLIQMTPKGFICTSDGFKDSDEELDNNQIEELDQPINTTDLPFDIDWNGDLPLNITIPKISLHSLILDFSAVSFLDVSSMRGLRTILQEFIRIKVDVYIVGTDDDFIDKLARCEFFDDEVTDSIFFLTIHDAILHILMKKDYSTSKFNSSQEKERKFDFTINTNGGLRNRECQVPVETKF

SLC26A9 = molecular target: T2, SLC26A9 (Homo sapiens, UniProt Q7LBE3); format: cell-based; settings: 10 μM compound, 10 min preincubation
T2 sequence (Q7LBE3 1-791): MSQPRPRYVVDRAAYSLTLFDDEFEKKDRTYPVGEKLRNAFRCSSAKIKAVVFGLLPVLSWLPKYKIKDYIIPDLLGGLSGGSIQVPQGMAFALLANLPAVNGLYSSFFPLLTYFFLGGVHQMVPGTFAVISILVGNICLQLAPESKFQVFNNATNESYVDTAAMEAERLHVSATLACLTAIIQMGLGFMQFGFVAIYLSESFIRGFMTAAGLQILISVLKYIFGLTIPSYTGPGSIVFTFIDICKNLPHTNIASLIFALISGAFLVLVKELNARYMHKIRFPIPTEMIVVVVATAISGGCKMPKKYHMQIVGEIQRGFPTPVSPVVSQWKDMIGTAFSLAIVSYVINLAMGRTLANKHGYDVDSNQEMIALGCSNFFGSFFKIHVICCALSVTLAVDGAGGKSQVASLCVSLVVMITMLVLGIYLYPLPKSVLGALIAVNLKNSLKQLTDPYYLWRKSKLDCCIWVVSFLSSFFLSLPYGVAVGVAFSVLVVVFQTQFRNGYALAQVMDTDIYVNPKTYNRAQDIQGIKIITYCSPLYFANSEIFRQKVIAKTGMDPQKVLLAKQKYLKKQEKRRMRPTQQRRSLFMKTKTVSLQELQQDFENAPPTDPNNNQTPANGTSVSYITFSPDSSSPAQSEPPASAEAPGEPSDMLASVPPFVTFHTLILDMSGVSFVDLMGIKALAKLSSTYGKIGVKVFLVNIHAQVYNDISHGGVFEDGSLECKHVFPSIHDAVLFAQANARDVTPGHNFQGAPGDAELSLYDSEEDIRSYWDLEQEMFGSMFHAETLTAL

loperamide-treated mice [1] = assay: Loperamide-induced constipation model in mice; format: in vivo; settings: for Stool water content: 3 h stool
slc26a6 (PAT-1) = molecular target: T3, slc26a6 (PAT-1) (Mus musculus, UniProt Q8CIW6); format: cell-based, murine; settings: 10 μM compound, 10 min preincubation
T3 sequence (Q8CIW6 1-758): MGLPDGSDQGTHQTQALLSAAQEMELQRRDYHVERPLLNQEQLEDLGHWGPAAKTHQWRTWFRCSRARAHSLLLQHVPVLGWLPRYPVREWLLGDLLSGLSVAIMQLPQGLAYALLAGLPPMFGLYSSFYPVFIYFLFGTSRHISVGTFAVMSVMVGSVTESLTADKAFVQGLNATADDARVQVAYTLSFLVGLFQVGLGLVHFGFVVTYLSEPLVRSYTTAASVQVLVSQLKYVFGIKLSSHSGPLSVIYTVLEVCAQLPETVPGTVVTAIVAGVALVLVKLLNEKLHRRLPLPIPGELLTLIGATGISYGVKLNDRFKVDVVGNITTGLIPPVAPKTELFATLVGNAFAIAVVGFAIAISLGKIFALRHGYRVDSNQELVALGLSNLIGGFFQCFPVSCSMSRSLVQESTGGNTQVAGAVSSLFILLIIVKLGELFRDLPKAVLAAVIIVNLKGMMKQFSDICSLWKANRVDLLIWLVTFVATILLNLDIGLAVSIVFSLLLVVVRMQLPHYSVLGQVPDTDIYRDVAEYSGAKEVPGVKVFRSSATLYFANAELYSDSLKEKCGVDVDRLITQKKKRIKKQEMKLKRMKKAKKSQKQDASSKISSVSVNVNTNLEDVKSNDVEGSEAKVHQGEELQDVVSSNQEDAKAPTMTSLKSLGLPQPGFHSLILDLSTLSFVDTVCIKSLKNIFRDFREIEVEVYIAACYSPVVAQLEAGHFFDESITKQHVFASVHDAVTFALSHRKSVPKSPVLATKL

[2] = Pharmacokinetics in mice, serum concentration by LC/MS; format: in vivo; settings: for bioavailability: mouse, serum, po
slc26a4 (pendrin) = molecular target: T4, slc26a4 (pendrin) (Mus musculus, UniProt Q9R155); format: cell-based, murine; settings: 10 μM compound, 10 min preincubation
T4 sequence (Q9R155 1-780): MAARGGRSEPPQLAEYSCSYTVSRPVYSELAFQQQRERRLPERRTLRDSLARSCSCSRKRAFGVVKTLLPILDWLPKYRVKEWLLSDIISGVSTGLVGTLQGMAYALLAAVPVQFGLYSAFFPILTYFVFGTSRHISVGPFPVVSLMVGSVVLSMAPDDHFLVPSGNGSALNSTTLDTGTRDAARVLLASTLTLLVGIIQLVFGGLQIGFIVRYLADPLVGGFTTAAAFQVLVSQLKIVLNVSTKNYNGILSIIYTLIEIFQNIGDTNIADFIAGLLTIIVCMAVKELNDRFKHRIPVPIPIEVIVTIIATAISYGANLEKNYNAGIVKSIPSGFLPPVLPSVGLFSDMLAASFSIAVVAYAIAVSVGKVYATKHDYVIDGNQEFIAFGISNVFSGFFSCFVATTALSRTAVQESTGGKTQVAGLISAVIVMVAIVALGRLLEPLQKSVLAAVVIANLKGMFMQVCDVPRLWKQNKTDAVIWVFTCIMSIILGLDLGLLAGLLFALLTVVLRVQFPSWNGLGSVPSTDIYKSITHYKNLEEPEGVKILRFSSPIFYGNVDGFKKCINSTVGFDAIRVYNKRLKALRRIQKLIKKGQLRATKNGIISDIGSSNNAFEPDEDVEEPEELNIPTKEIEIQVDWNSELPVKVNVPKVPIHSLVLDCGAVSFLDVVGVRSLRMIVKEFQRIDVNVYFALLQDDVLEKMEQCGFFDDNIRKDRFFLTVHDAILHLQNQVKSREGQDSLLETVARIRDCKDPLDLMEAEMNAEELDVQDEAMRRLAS

loperamide-treated mice [3] = settings: cited from earlier work

Question: Which “slc26a3 inhibition at 5 μM” value (slc26a3 (DRA)) does the source give for `Cc1c(CC(=O)O)c(=O)oc2c(C)c(OCCn3cccc3)ccc12` [4ap] here?
Answer: Its value is “inactive”.

Question: Which “slc26a3 inhibition activity, in words” value (slc26a3 (DRA)) does the source give for `COc1ccc2ccc(=O)oc2c1` [S3] here?
Answer: Its value is “inactive”.

Question: For `Cc1c(CC(=O)O)c(=O)oc2c(C)c(OS(=O)(=O)c3cccc(Cl)c3)ccc12` [4ar], which “slc26a3 inhibition at 5 μM” value (slc26a3 (DRA)) is on record?
Answer: Its value is “no inhibition”.

Question: Which “slc26a3 inhibition activity, in words” value (slc26a3 (DRA)) does the source give for `Cc1c(CC(N)=O)c(=O)oc2c(C)c(OCc3cccc(Br)c3)ccc12` [8ae] here?
Answer: The value was “much reduced inhibition”.

Question: Which results are given for `Cc1c(CC(=O)O)c(=O)oc2c(C)c(OCc3cccc(I)c3)ccc12` [4az]?
Answer: Inhibition of chloride/iodide exchange, SLC26A9 (SLC26A9): not significantly inhibited; Extent of inhibition of slc26a3-mediated anion exchange (slc26a3 (DRA)): fully inhibited; Effect on stool parameters compared to vehicle (loperamide-treated mice [1]; control mice not treated with loperamide): no significant effect; Stool water content (loperamide-treated mice [1]; loperamide-treated mice, 3 mg/kg oral): fully normalized; Stool water content (loperamide-treated mice [1]; loperamide-treated mice, 10 mg/kg oral): fully normalized; Inhibition of chloride/iodide exchange, slc26a6 (PAT-1) (slc26a6 (PAT-1)): not significantly inhibited; Duration of predicted therapeutic concentrations in serum ([2]; mice, single 10 mg/kg dose, oral (b1), oral or intraperitoneal): > 72 h; bioavailability ([2]; 10 mg/kg): 39 ± 4%; Inhibition of chloride/iodide exchange, slc26a4 (pendrin) (slc26a4 (pendrin)): not significantly inhibited

Question: With `Cc1c(CC(=O)O)c(=O)oc2c(C)c(OCc3cccc(C(F)(F)F)c3)ccc12` [4be] as the compound, how does the “Inhibition of chloride/iodide exchange, SLC26A9” value (SLC26A9) read?
Answer: The value was “not significantly inhibited”.

Question: What about the “Extent of inhibition of slc26a3-mediated anion exchange” value (slc26a3 (DRA)) of the same compound?
Answer: The value was “fully inhibited”.

Question: What about the “3 h stool weight, pellet number, and water content” value (loperamide-treated mice [1]; loperamide-treated mice, 5 mg/kg oral 1 h before loperamide, 5 mg/kg) of the same compound?
Answer: Its value is “partially prevented constipation; also recorded: improved”.

Question: And the “Inhibition of chloride/iodide exchange, slc26a6 (PAT-1)” value (slc26a6 (PAT-1))?
Answer: The value was “not significantly inhibited”.

Question: What about the “Serum level at 16 h” value ([2]; mice, single dose 5 mg/kg oral or intraperitoneal, 16 h) of the same compound?
Answer: Its value is “little compound remaining”.

Question: What about the bioavailability ([2]; 5 mg/kg) of the same compound?
Answer: Its bioavailability is 16 ± 7%.

Question: What about the “Inhibition of chloride/iodide exchange, slc26a4 (pendrin)” value (slc26a4 (pendrin)) of the same compound?
Answer: Its value is “not significantly inhibited”.

Question: With `C=CCOc1ccc2c(C)c(CC(=O)O)c(=O)oc2c1C` [4aa] as the compound, how does the “slc26a3 inhibition at 5 μM” value (slc26a3 (DRA)) read?
Answer: Its value is “no inhibition”.

Question: With `CCCOc1ccc2c(C)c(CC(=O)O)c(=O)oc2c1C` [4ad] as the compound, how does the “slc26a3 inhibition at 5 μM” value (slc26a3 (DRA)) read?
Answer: Its value is “no inhibition”.

Question: With `Cc1cccc(S(=O)(=O)Oc2ccc3c(C)c(CC(=O)O)c(=O)oc3c2C)c1` [4aq] as the compound, how does the “slc26a3 inhibition at 5 μM” value (slc26a3 (DRA)) read?
Answer: The value was “no inhibition”.

Question: With `Cc1c(CC(=O)O)c(=O)oc2c(C)c(OCc3cccc(Br)c3)ccc12` [4ba, 2-(7-((3-Bromobenzyl)oxy)-4,8-dimethyl-2-oxo-2H-chromen-3-yl)acetic Acid] as the compound, how does the “Efficacy in a mouse model of constipation” value (loperamide-treated mice [3]) read?
Answer: Its value is “showed efficacy”.

Question: What about the bioavailability ([2]; 5 mg/kg) of the same compound?
Answer: Its bioavailability is 54 ± 6.5%.

Question: For `Cc1c(OCc2cccc(Br)c2)ccc2cc(C(=O)O)c(=O)oc12` [8aa], which “slc26a3 inhibition activity, in words” value (slc26a3 (DRA)) is on record?
Answer: The value was “inactive”.

Question: For `Cc1c(CC(=O)O)c(=O)oc2c(C)c(OCCc3cccc(C(F)(F)F)c3)ccc12` [4as], which “slc26a3 inhibition at 5 μM” value (slc26a3 (DRA)) is on record?
Answer: The value was “no inhibition”.

— publication PMC7034394 (Journal of medicinal chemistry, 2019)
